How the values were obtained:
[1] = test system: human colorectal cancer cells (HCT116); experiment: Growth inhibition assay (cytotoxicity) in HCT116; assay type: cell-based; conditions: HCT-116
Experimental: (§1) For present invention, the ATPase activity of yeast HSP90 was measured using malachite green assay. Formula I compounds for primary antitumoral activity were treated in human colorectal cancer cells (HCT116) showing increased expression levels of HSP90 client protein and cotoxicity IC50 values was measured as a result.

yeast HSP90 = yeast HSP90 (Saccharomyces cerevisiae, UniProt P02829); experiment: Hsp90 ATPase assay (malachite green); assay type: biochemical
Sequence of yeast HSP90 (P02829 whole entry): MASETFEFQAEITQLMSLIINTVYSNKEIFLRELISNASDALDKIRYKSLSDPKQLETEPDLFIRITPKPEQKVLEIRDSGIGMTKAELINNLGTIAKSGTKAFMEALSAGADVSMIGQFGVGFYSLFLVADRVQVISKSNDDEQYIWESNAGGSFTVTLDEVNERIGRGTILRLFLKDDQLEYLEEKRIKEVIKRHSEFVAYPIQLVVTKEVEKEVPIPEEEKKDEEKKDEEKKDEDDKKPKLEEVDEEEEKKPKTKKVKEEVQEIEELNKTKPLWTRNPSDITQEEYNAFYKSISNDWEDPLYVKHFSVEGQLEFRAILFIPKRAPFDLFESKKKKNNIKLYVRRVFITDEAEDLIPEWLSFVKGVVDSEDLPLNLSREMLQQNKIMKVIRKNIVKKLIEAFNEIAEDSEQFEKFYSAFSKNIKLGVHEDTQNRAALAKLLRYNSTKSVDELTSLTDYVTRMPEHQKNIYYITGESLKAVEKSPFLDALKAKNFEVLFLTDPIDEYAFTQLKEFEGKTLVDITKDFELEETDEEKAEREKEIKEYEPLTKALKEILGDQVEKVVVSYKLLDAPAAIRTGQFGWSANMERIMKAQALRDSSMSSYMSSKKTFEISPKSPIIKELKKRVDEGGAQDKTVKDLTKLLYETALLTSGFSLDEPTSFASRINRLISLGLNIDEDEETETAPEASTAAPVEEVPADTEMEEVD
Experimental: as §1

Row | SMILES | IC50 [1] [nM] | IC50 (yeast HSP90) [nM]
1 | CCNC(=O)c1noc(-c2cc(C(C)C)c(O)cc2O)c1-c1cc(/C=N/OCC)no1 [Compound I-55, 5-(2,4-Dihydroxy-5-isopropylphenyl)-3′-((ethoxyimino)methyl)-N-ethyl-4,5′-biisoxazole-3-carboxamide] | < 500 | 500 to 1000
2 | CCNC(=O)c1noc(-c2cc(C(C)C)c(O)cc2O)c1-c1cc(COCC(N)=O)no1 [Compound I-36, 3′-((2-Amino-2-oxoethoxy)methyl)-5-(2,4-dihydroxy-5-isopropylphenyl)-N-ethyl-4,5′-biisoxazole-3-carboxamide] | < 500 | < 500
3 | CCNC(=O)c1noc(-c2cc(C(C)C)c(O)cc2O)c1-c1noc(C(=O)N(C)C)n1 [Compound I-64, 3-(5-(2,4-Dihydroxy-5-isopropylphenyl)-3-(ethylcarbamoyl)isoxazol-4-yl)-N,N-dimethyl-1,2,4-oxadiazole-5-carboxamide] | < 500 | < 500
4 | CCNC(=O)c1noc(-c2cc(C(C)C)c(O)cc2O)c1-c1cc(C(=O)N2CCOCC2)no1 [Compound I-23, 5-(2,4-Dihydroxy-5-isopropylphenyl)-N-ethyl-3′-(morpholine-4-carbonyl)-4,5′-biisoxazole-3-carboxamide] | < 500 | 500 to 1000
5 | CCNC(=O)c1noc(-c2cc(C(C)C)c(O)cc2O)c1-c1noc(C(=O)OC)n1 [Compound I-58, Methyl 3-(5-(2,4-dihydroxy-5-isopropylphenyl)-3-(ethylcarbamoyl)isoxazol-4-yl)-1,2,4-oxadiazole-5-carboxylate] | > 1000 | 500 to 1000
6 | CCNC(=O)c1noc(-c2cc(C(C)C)c(O)cc2O)c1-c1noc(N)n1 [Compound I-78, 4-(5-Amino-1,2,4-oxadiazol-3-yl)-5-(2,4-dihydroxy-5-isopropylphenyl)-N-ethylisoxazole-3-carboxamide] | < 500 | < 500
7 | CCNC(=O)c1noc(-c2cc(C(C)C)c(O)cc2O)c1-c1noc(C(=O)N2CCCC2)n1 [Compound I-68, 5-(2,4-Dihydroxy-5-isopropylphenyl)-N-ethyl-4-(5-(pyrrolidine-1-carbonyl)-1,2,4-oxadiazol-3-yl)isoxazole-3-carboxamide] | < 500 | 500 to 1000
8 | CCNC(=O)c1noc(-c2cc(C(C)C)c(O)cc2O)c1-c1cc(CF)no1 [Compound I-28, 5-(2,4-Dihydroxy-5-isopropylphenyl)-N-ethyl-3′-(fluoromethyl)-4,5′-biisoxazole-3-carboxamide] | < 500 | < 500
9 | CCNC(=O)c1noc(-c2cc(C(C)C)c(O)cc2O)c1-c1cc(CNC)no1 [Compound I-42, 5-(2,4-Dihydroxy-5-isopropylphenyl)-N-ethyl-3′-((methylamino)methyl)-4,5′-biisoxazole-3-carboxamide] | < 500 | < 500
10 | CCNC(=O)c1noc(-c2cc(C(C)C)c(O)cc2O)c1-c1noc(N2CCCCC2)n1 [Compound I-71, 5-(2,4-Dihydroxy-5-isopropylphenyl)-N-ethyl-4-(5-(piperidin-1-yl)-1,2,4-oxadiazol-3-yl)isoxazole-3-carboxamide] | < 500 | < 500
11 | CCCn1ccc(-c2c(C(=O)NCC)noc2-c2cc(C(C)C)c(O)cc2O)n1 [Compound I-101, 5-(2,4-Dihydroxy-5-isopropylphenyl)-N-ethyl-4-(1-propyl-1H-pyrazol-3-yl)isoxazole-3-carboxamide] | < 500 | 500 to 1000
12 | CCNC(=O)c1noc(-c2cc(C(C)C)c(O)cc2O)c1-c1cc(C(OC)OC)no1 [Compound I-51, 5-(2,4-Dihydroxy-5-isopropylphenyl)-3′-(dimethoxymethyl)-N-ethyl-4,5′-biisoxazole-3-carboxamide] | < 500 | < 500
13 | CCNC(=O)c1noc(-c2cc(C(C)C)c(O)cc2O)c1-c1noc(CC)n1 [Compound I-62, 5-(2,4-Dihydroxy-5-isopropylphenyl)-N-ethyl-4-(5-ethyl-1,2,4-oxadiazol-3-yl)isoxazole-3-carboxamide] | < 500 | < 500
14 | CCNC(=O)c1noc(-c2cc(C(C)C)c(O)cc2O)c1-c1noc([C@H](C)O)n1 [Compound I-83, (S)-5-(2,4-Dihydroxy-5-isopropylphenyl)-N-ethyl-4-(5-(1-hydroxyethyl)-1,2,4-oxadiazol-3-yl)isoxazole-3-carboxamide] | < 500 | 500 to 1000
15 | CCNC(=O)c1noc(-c2cc(C(C)C)c(O)cc2O)c1-c1noc(-c2cccs2)n1 [Compound I-77, 5-(2,4-Dihydroxy-5-isopropylphenyl)-N-ethyl-4-(5-(thiophen-2-yl)-1,2,4-oxadiazol-3-yl)isoxazole-3-carboxamide] | < 500 | 500 to 1000
16 | CCNC(=O)c1noc(-c2cc(C(C)C)c(O)cc2O)c1-c1ccnn1C [Compound I-98, 5-(2,4-Dihydroxy-5-isopropylphenyl)-N-ethyl-4-(1-methyl-1H-pyrazol-5-yl)isoxazole-3-carboxamide] | < 500 | < 500

Row | SMILES | IC50 [1] [nM] | IC50 (yeast HSP90) [nM]
17 | CCNC(=O)c1cc(-c2c(C(=O)NCC)n[nH]c2-c2cc(C(C)C)c(O)cc2O)on1 [Compound I-29, 5-(5-(2,4-Dihydroxy-5-isopropylphenyl)-3-(ethylcarbamoyl)-1H-pyrazol-4-yl)-N-ethylisoxazole-3-carboxamide] | > 1000 | > 1000
18 | CCNC(=O)c1noc(-c2cc(C(C)C)c(O)cc2O)c1-c1cc(C(=O)NC)no1 [Compound I-56, 5-(2,4-Dihydroxy-5-isopropylphenyl)-N^3-ethyl-N^3′-methyl-4,5′-biisoxazole-3,3′-dicarboxamide] | < 500 | < 500
19 | CCNC(=O)c1noc(-c2cc(C(C)C)c(O)cc2O)c1-c1noc(N2CCOCC2)n1 [Compound I-73, 5-(2,4-Dihydroxy-5-isopropylphenyl)-N-ethyl-4-(5-morpholino-1,2,4-oxadiazol-3-yl)isoxazole-3-carboxamide] | < 500 | 500 to 1000
20 | CCNC(=O)c1noc(-c2cc(C(C)C)c(O)cc2O)c1-c1cc(CNC(C)=O)no1 [Compound I-31, 3′-(Acetamidomethyl)-5-(2,4-dihydroxy-5-isopropylphenyl)-N-ethyl-4,5′-biisoxazole-3-carboxamide] | < 500 | 500 to 1000
21 | CCNC(=O)c1noc(-c2cc(C(C)C)c(O)cc2O)c1-c1cnn(C(C)C)c1 [Compound I-105, 5-(2,4-Dihydroxy-5-isopropylphenyl)-N-ethyl-4-(1-isopropyl-1H-pyrazol-4-yl)isoxazole-3-carboxamide] | < 500 | 500 to 1000
22 | CCNC(=O)c1noc(-c2cc(C(C)C)c(O)cc2O)c1-c1noc(C(=O)N(CC)CC)n1 [Compound I-74, 3-(5-(2,4-Dihydroxy-5-isopropylphenyl)-3-(ethylcarbamoyl)isoxazol-4-yl)-N,N-diethyl-1,2,4-oxadiazole-5-carboxamide] | 500 to 1000 | 500 to 1000
23 | CCNC(=O)c1noc(-c2cc(C(C)C)c(O)cc2O)c1-c1noc(SC)n1 [Compound I-87, 5-(2,4-Dihydroxy-5-isopropylphenyl)-N-ethyl-4-(5-(methylthio)-1,2,4-oxadiazol-3-yl)isoxazole-3-carboxamide] | 500 to 1000 | < 500
24 | C=CCNCc1cc(-c2c(C(=O)NCC)noc2-c2cc(C(C)C)c(O)cc2O)on1 [Compound I-44, 3′-((Allylamino)methyl)-5-(2,4-dihydroxy-5-isopropylphenyl)-N-ethyl-4,5′-biis oxazole-3-carboxamide] | < 500 | < 500
25 | CCNC(=O)c1noc(-c2cc(C(C)C)c(O)cc2O)c1-c1ccn(CC)n1 [Compound I-99, 5-(2,4-Dihydroxy-5-isopropylphenyl)-N-ethyl-4-(1-ethyl-1H-pyrazol-3-yl)isoxazole-3-carboxamide] | < 500 | 500 to 1000
26 | CCNC(=O)c1noc(-c2cc(C(C)C)c(O)cc2O)c1-c1cnn(CC)c1 [Compound I-104, 5-(2,4-Dihydroxy-5-isopropylphenyl)-N-ethyl-4-(1-ethyl-1H-pyrazol-4-yl)isoxazole-3-carboxamide] | < 500 | 500 to 1000
27 | CCNC(=O)c1noc(-c2cc(C(C)C)c(O)cc2O)c1-c1cc(-c2ccccc2)no1 [Compound I-49, 5-(2,4-Dihydroxy-5-isopropylphenyl)-N-ethyl-3′-phenyl-4,5′-biisoxazole-3-carboxamide] | 500 to 1000 | 500 to 1000
28 | CCNC(=O)c1noc(-c2cc(C(C)C)c(O)cc2O)c1-c1noc(C(O)CCl)n1 (stereo not shown) [Compound I-91, 4-(5-(2-Chloro-1-hydroxyethyl)-1,2,4-oxadiazol-3-yl)-5-(2,4-dihydroxy-5-isopropylphenyl)-N-ethylisoxazole-3-carboxamide] | < 500 | 500 to 1000
29 | CCNC(=O)c1noc(-c2cc(C(C)C)c(O)cc2O)c1-c1cc(CN2CCCCC2)no1 [Compound I-38, 5-(2,4-Dihydroxy-5-isopropylphenyl)-N-ethyl-3′-(piperidin-1-ylmethyl)-4,5′-biisoxazole-3-carboxamide] | < 500 | 500 to 1000
30 | CC(C)c1cc(-c2onc(CO)c2-c2ccsc2)c(O)cc1O [Compound I-3, 4-(3-(Hydroxymethyl)-4-(thiophen-3-yl)isoxazol-5-yl)-6-isopropylbenzene-1,3-diol] | > 1000 | > 1000
31 | CCNC(=O)c1noc(-c2cc(C(C)C)c(O)cc2O)c1-c1cc(CN2CCOCC2)no1 [Compound I-18, 5-(2,4-Dihydroxy-5-isopropylphenyl)-N-ethyl-3′-(morpholinomethyl)-4,5′-biisoxazole-3-carboxamide] | < 500 | 500 to 1000
32 | CCNC(=O)c1noc(-c2cc(C(C)C)c(O)cc2O)c1-c1noc(C(=O)N2CCOCC2)n1 [Compound I-67, 5-(2,4-Dihydroxy-5-isopropylphenyl)-N-ethyl-4-(5-(morpholine-4-carbonyl)-1,2,4-oxadiazol-3-yl)isoxazole-3-carboxamide] | 500 to 1000 | 500 to 1000
